Here are results for 22 compounds from US12331054B2, “Perk inhibiting imidazolopyrazine compounds” (HiberCell, Inc., priority 2019, dated 2025).

The test system of assay [1] is eIF2α in HEK293-EGFP-eIF2α cells. The assay can be described thus: PERK Cellular Assay (HEK293-EGFP-eIF2α cells, tunicamycin-induced ER stress, TR-FRET). The assay is classed as cell-based. Particulars: tunicamycin 2 hours. The gist of the method:
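Cells pre-incubated with inhibitor 30 min at 37 °C, then ER stress induced with […] tunicamycin for 2 h. TR-FRET read on lysates; ratio normalized to DMSO control as percent inhibition over a 10-point, 3-fold dilution series; IC50 from 4-parameter logistic fit.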
(In general: Time-resolved FRET reads energy transfer from a long-lived donor to a nearby acceptor.)

For assay [2], the target named is Recombinant human EIF2AK3 (PERK) catalytic domain (amino acids 536-1116) (Homo sapiens (Human), UniProt Q9NZJ5). The assay can be described thus: PERK In Vitro Activity Assay (isolated), TR-FRET kinase assay. To be noted: isolated PERK enzyme, 1.5 μM ATP, read-out: Biochemical IC50. The gist of the method: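 Recombinant PERK catalytic domain was incubated with 100–200 nM GFP-eIF2a substrate in 50 mM HEPES pH 7.5, 10 mM MgCl2, 1.0 mM EGTA and 0.01% Brij-35 for 45 min at room temperature. After a 10 mM EDTA stop, 2 nM Tb-anti-phospho-eIF2a was added for 90 min, and IC50 was fitted from TR-FRET ratios by 4-parameter logistic regression.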

Each structure is given as a SMILES string.

Sequence of Recombinant human EIF2AK3 (PERK) catalytic domain (amino acids 536-1116) (Q9NZJ5 536-1116): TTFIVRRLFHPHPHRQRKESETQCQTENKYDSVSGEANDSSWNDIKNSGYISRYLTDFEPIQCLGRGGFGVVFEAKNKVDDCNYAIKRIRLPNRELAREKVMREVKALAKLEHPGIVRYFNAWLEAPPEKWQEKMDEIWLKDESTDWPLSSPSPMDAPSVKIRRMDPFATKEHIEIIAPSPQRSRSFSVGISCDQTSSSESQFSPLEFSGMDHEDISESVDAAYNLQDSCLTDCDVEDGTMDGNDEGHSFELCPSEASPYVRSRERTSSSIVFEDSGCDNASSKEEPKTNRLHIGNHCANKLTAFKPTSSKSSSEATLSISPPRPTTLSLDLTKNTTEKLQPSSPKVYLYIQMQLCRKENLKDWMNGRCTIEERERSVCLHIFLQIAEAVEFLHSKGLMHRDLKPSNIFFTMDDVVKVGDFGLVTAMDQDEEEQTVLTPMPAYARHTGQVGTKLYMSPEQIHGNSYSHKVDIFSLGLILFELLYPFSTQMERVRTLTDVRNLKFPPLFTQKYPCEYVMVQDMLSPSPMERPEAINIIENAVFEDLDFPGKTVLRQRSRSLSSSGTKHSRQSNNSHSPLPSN

For `[2H]C([2H])([2H])c1nc(-c2ccc(NC(=O)C(O)c3cccc(F)c3)c(F)c2F)c2c(N)ncc(C)n12` (centres unmarked) [Example 133, N-[4-[8-amino-5-methyl-3-(trideuteriomethyl)imidazo[1,5-a]pyrazin-1-yl]-2,3-difluoro-phenyl]-2-(3-fluoro-phenyl)-2-hydroxy-acetamide], the half-maximal inhibitory concentration (IC50) (usually the concentration that gives 50% inhibition) in assay [1] lay in the range of 101 to 250 nM; in assay [2], 1 to 25 nM.

`[2H]C([2H])([2H])c1nc(-c2ccc(NC(=O)C(O)c3cccc(F)c3)c(F)c2F)c2c(N)ncc(C(F)(F)F)n12` (centres unmarked) [Example 134, N-[4-[8-amino-3-(trideuteriomethyl)-5-(trifluoromethyl)imidazo[1,5-a]pyrazin-1-yl]-2,3-difluoro-phenyl]-2-(3-fluorophenyl)-2-hydroxy-acetamide]: the IC50 in assay [1] and in assay [2] was 1 to 25 nM in each case.

In the case of `[2H]C([2H])([2H])c1nc(-c2ccc(NC(=O)C(O)c3cccc(F)c3)c(F)c2F)c2c(N)ncc(C(F)(F)F)n12` (centres unmarked) [Example 135, N-[4-[8-amino-3-(trideuteriomethyl)-5-(trifluoromethyl)imidazo[1,5-a]pyrazin-1-yl]-2,3-difluoro-phenyl]-2-(3-fluorophenyl)-2-hydroxy-acetamide], the IC50 in assay [1] lay within 501 to 1000 nM; in assay [2], 101 to 250 nM.

On to `[2H]C([2H])([2H])c1nc(-c2ccc(NC(=O)C(O)c3cccc(F)c3)c(F)c2F)c2c(N)ncc(Cl)n12` (centres unmarked) [Example 136, N-[4-[8-amino-5-chloro-3-(trideuteriomethyl)imidazo[1,5-a]pyrazin-1-yl]-2,3-difluoro-phenyl]-2-(3-fluoro-phenyl)-2-hydroxy-acetamide], for which the IC50 in assay [1] and in assay [2] was 1 to 25 nM throughout.

Turning to `[2H]C([2H])([2H])c1nc(-c2ccc(NC(=O)C(O)c3cccc(F)c3)c(F)c2F)c2c(N)ncc(Cl)n12` (centres unmarked) [Example 137, N-[4-[8-amino-5-chloro-3-(trideuteriomethyl)imidazo[1,5-a]pyrazin-1-yl]-2,3-difluoro-phenyl]-2-(3-fluoro-phenyl)-2-hydroxy-acetamide], the values for the IC50 in assay [1] and in assay [2] were 251 to 500 nM and 1 to 25 nM, respectively.

For the compound `[2H]C([2H])([2H])c1nc(-c2ccc(NC(=O)C(O)c3cccc(Cl)c3)c(F)c2F)c2c(N)ncc(C)n12` (centres unmarked) [Example 138, N-[4-[8-amino-5-methyl-3-(trideuteriomethyl)imidazo[1,5-a]pyrazin-1-yl]-2,3-difluoro-phenyl]-2-(3-chloro-phenyl)-2-hydroxy-acetamide], the IC50 in assay [1] and in assay [2] was 1 to 25 nM each time.

In the case of `[2H]C([2H])([2H])c1nc(-c2ccc(NC(=O)C(O)c3cccc(Cl)c3)c(F)c2F)c2c(N)ncc(C)n12` (centres unmarked) [Example 139, N-[4-[8-amino-5-methyl-3-(trideuteriomethyl)imidazo[1,5-a]pyrazin-1-yl]-2,3-difluoro-phenyl]-2-(3-chlorophenyl)-2-hydroxy-acetamide], the figures for the IC50 in assay [1] and in assay [2] were 101 to 250 nM and 1 to 25 nM, respectively.

As for `[2H]C([2H])([2H])c1nc(-c2ccc(NC(=O)C(O)c3cccc(Cl)c3)c(F)c2F)c2c(N)nc(C)cn12` (centres unmarked) [Example 140, N-[4-[8-amino-6-methyl-3-(trideuteriomethyl)imidazo[1,5-a]pyrazin-1-yl]-2,3-difluoro-phenyl]-2-(3-chlorophenyl)-2-hydroxy-acetamide], the IC50 in assay [1] and in assay [2] was 1 to 25 nM in each case.

Consider `[2H]C([2H])([2H])c1nc(-c2ccc(NC(=O)C(O)c3cccc(Cl)c3)c(F)c2F)c2c(N)nc(C)cn12` (centres unmarked) [Example 141, N-[4-[8-amino-6-methyl-3-(trideuteriomethyl)imidazo[1,5-a]pyrazin-1-yl]-2,3-difluoro-phenyl]-2-(3-chlorophenyl)-2-hydroxy-acetamide], for which the results for the IC50 in assay [1] and in assay [2] were 501 to 1000 nM and 51 to 100 nM, respectively.

Take `[2H]C([2H])([2H])c1nc(-c2ccc(NC(=O)C(O)c3cccc(Cl)c3)c(F)c2F)c2c(N)ncc(C(F)(F)F)n12` (centres unmarked) [Example 142, N-[4-[8-amino-3-(trideuteriomethyl)-5-(trifluoromethyl)imidazo[1,5-a]pyrazin-1-yl]-2,3-difluoro-phenyl]-2-(3-chlorophenyl)-2-hydroxy-acetamide]: the IC50 in assay [1] and in assay [2] was 1 to 25 nM throughout.

For the compound `[2H]C([2H])([2H])c1nc(-c2ccc(NC(=O)C(O)c3cccc(Cl)c3)c(F)c2F)c2c(N)ncc(C(F)(F)F)n12` (centres unmarked) [Example 143, N-[4-[8-amino-3-(trideuteriomethyl)-5-(trifluoromethyl)imidazo[1,5-a]pyrazin-1-yl]-2,3-difluoro-phenyl]-2-(3-chlorophenyl)-2-hydroxy-acetamide], the IC50 in assay [1] and in assay [2] was 251 to 500 nM each time.

Regarding `[2H]C([2H])([2H])c1nc(-c2ccc(NC(=O)C(O)c3cccc(Cl)c3)c(F)c2F)c2c(N)ncc(Cl)n12` (centres unmarked) [Example 144, N-[4-[8-amino-5-chloro-3-(trideuteriomethyl)imidazo[1,5-a]pyrazin-1-yl]-2,3-difluoro-phenyl]-2-(3-chlorophenyl)-2-hydroxy-acetamide], the IC50 lay within 51 to 100 nM in assay [1] and 1 to 25 nM in assay [2].

As for `[2H]C([2H])([2H])c1nc(-c2ccc(NC(=O)C(O)c3cccc(Cl)c3)c(F)c2F)c2c(N)ncc(Cl)n12` (centres unmarked) [Example 145, N-[4-[8-amino-5-chloro-3-(trideuteriomethyl)imidazo[1,5-a]pyrazin-1-yl]-2,3-difluoro-phenyl]-2-(3-chlorophenyl)-2-hydroxy-acetamide], the IC50 in assay [1] and in assay [2] was 1 to 25 nM each time.

Turning to `[2H]C([2H])([2H])c1nc(-c2ccc(NC(=O)C(O)c3cccc(C(F)(F)F)c3)c(F)c2F)c2c(N)ncc(C)n12` (centres unmarked) [Example 146, N-[4-[8-amino-5-methyl-3-(trideuteriomethyl)imidazo[1,5-a]pyrazin-1-yl]-2,3-difluoro-phenyl]-2-hydroxy-2-[3-(trifluoromethyl)phenyl]acetamide], the IC50 in assay [1] and in assay [2] was 1 to 25 nM throughout.

With `[2H]C([2H])([2H])c1nc(-c2ccc(NC(=O)C(O)c3cccc(C(F)(F)F)c3)c(F)c2F)c2c(N)ncc(C)n12` (centres unmarked) [Example 147, N-[4-[8-amino-5-methyl-3-(trideuteriomethyl)imidazo[1,5-a]pyrazin-1-yl]-2,3-difluoro-phenyl]-2-hydroxy-2-[3-(trifluoromethyl)phenyl]acetamide], the IC50 in assay [1] was in the range of 101 to 250 nM; in assay [2], 26 to 50 nM.

`[2H]C([2H])([2H])c1nc(-c2ccc(NC(=O)C(O)c3cccc(C(F)(F)F)c3)c(F)c2F)c2c(N)ncc(C(F)(F)F)n12` (centres unmarked) [Example 148, N-[4-[8-amino-3-(trideuteriomethyl)-5-(trifluoromethyl)imidazo[1,5-a]pyrazin-1-yl]-2,3-difluoro-phenyl]-2-hydroxy-2-[3-(trifluoromethyl)phenyl]acetamide]: the IC50 in assay [1] and in assay [2] was 1 to 25 nM each time.

For `[2H]C([2H])([2H])c1nc(-c2ccc(NC(=O)C(O)c3cccc(C(F)(F)F)c3)c(F)c2F)c2c(N)ncc(C(F)(F)F)n12` (centres unmarked) [Example 149, N-[4-[8-amino-3-(trideuteriomethyl)-5-(trifluoromethyl)imidazo[1,5-a]pyrazin-1-yl]-2,3-difluoro-phenyl]-2-hydroxy-2-[3-(trifluoromethyl)phenyl]acetamide], the IC50 in assay [1] was in the range of 251 to 500 nM; in assay [2], 501 to 1000 nM.

For `[2H]C([2H])([2H])c1nc(-c2ccc(NC(=O)C(O)c3cccc(C(F)(F)F)c3)c(F)c2F)c2c(N)nc(C)cn12` (centres unmarked) [Example 150, N-[4-[8-amino-6-methyl-3-(trideuteriomethyl)imidazo[1,5-a]pyrazin-1-yl]-2,3-difluoro-phenyl]-2-hydroxy-2-[3-(trifluoromethyl)phenyl]acetamide], the IC50 fell in the range of 26 to 50 nM in assay [1] and 1 to 25 nM in assay [2].

For the compound `[2H]C([2H])([2H])c1nc(-c2ccc(NC(=O)C(O)c3cccc(C(F)(F)F)c3)c(F)c2F)c2c(N)nc(C)cn12` (centres unmarked) [Example 151, N-[4-[8-amino-6-methyl-3-(trideuteriomethyl)imidazo[1,5-a]pyrazin-1-yl]-2,3-difluoro-phenyl]-2-hydroxy-2-[3-(trifluoromethyl)phenyl]acetamide], the half-inhibitory concentration (IC50) in assay [1] was 251 to 500 nM; in assay [2] it was 51 to 100 nM.

With `[2H]C([2H])([2H])c1nc(-c2ccc(NC(=O)C(O)c3cccc(C(F)(F)F)c3)c(F)c2F)c2c(N)ncc(Cl)n12` (centres unmarked) [Example 152, N-[4-[8-amino-5-chloro-3-(trideuteriomethyl)imidazo[1,5-a]pyrazin-1-yl]-2,3-difluoro-phenyl]-2-hydroxy-2-[3-(trifluoromethyl)phenyl]acetamide], the IC50 in assay [1] and in assay [2] was 1 to 25 nM in each case.

As to `[2H]C([2H])([2H])c1nc(-c2ccc(NC(=O)C(O)c3cccc(C(F)(F)F)c3)c(F)c2F)c2c(N)ncc(Cl)n12` (centres unmarked) [Example 153, N-[4-[8-amino-5-chloro-3-(trideuteriomethyl)imidazo[1,5-a]pyrazin-1-yl]-2,3-difluoro-phenyl]-2-hydroxy-2-[3-(trifluoromethyl)phenyl]acetamide], the figures for the concentration for half-maximal inhibition (IC50) in assay [1] and in assay [2] were 101 to 250 nM and 26 to 50 nM, respectively.

Turning to `[2H]C([2H])([2H])c1nc(-c2ccc(NC(=O)C(O)c3cc(F)cc(F)c3)c(F)c2F)c2c(N)ncc(C)n12` (centres unmarked) [Example 154, N-[4-[8-amino-5-methyl-3-(trideuteriomethyl)imidazo[1,5-a]pyrazin-1-yl]-2,3-difluoro-phenyl]-2-(3,5-difluorophenyl)-2-hydroxy-acetamide], the IC50 in assay [1] and in assay [2] was 1 to 25 nM in each case.
